Like-named read-outs stand apart in the source and are kept apart here.
Key:
Candida albicans = assay: MIC and MFC against Candida albicans; format: cell-based
Description: (§1) A study was carried out to determine the effectiveness of thymol and carvacrol, singly or in combination, against bacterial vaginosis, trichomoniasis, candidiasis and lactobacilli relative to metronidazole, clotrimazole and clindamycin.
(§2) The results are shown in Table 2, wherein minimum inhibitory concentration (MIC) and minimum bactericidal (or fungicidal) concentration (MBC or MFC) are shown: […]

Gardnerella vaginalis = assay: MIC and MBC against Gardnerella vaginalis; format: cell-based
Description: as §1, §2

Lactobacillus = assay: MIC and MBC against Lactobacillus; format: cell-based
Description: as §1, §2

[1] = test system: Gardnerella vaginalis biofilm; details: cited from earlier work
[2] = test system: Lactobacillus acidophilus; assay: Inhibition of Lactobacillus acidophilus across thymol concentration range; format: cell-based; details: steady rate across the concentration range
From the text: Lactobacillus acidophilus, with a steady rate of <10% inhibition of Lactobacillus acidophilus across the concentration range, compared to inhibition range of 10% to 100% across the same concentration range.

[3] = test system: Gardnerella vaginalis biofilm; details: cited from earlier work; for Mature biofilm inhibition: Gardnerella mature biofilm; for Native biofilm inhibition: Gardnerella native biofilm
G. vaginalis = details: cited from earlier work
C. albicans biofilms = details: cited from earlier work

With Cc1ccc(C(C)C)cc1O [Carvacrol] the MFC (Candida albicans) was 1250 µg/mL, the MIC (Candida albicans) was 625 µg/mL and the MBC (Gardnerella vaginalis) was 156 µg/mL. For the same molecule, the MIC (Gardnerella vaginalis) was 156 µg/mL, the MBC (Lactobacillus) was 2440 µg/mL and the MIC (Lactobacillus) was 2440 µg/mL.
With CCC[C@@H]1C[C@@H](C(=O)N[C@@H]([C@H]2O[C@H](SC)[C@H](O)[C@@H](O)[C@H]2O)[C@H](C)Cl)N(C)C1 [Clindamycin, reference compound] the MBC (Gardnerella vaginalis; read-out: MBC) was 8 µg/mL, the MIC (Gardnerella vaginalis; read-out: MIC) was 4 µg/mL and the MIC (Lactobacillus; read-out: MIC) was 1000 µg/mL.
In the case of Clc1ccccc1C(c1ccccc1)(c1ccccc1)n1ccnc1 [Clotrimazole, reference compound], the MFC (Candida albicans; read-out: MFC) is reported as ≥ 2000 µg/mL and the MIC (Candida albicans; read-out: MIC) is reported as 1000 µg/mL.
For Cc1ncc([N+](=O)[O-])n1CCO [Metronidazole, reference compound], the MIC (Gardnerella vaginalis; read-out: MIC) is listed as 64 µg/mL, the MIC (Lactobacillus; read-out: MIC) is listed as ≥ 1000 µg/mL and the “Prevention of biofilm formation” value ([1]; Gardnerella vaginalis) is listed as “only able to prevent biofilm formation”. The “Inhibition or killing of mature biofilm” value ([1]; mature biofilm of Gardnerella vaginalis) was “unable to inhibit or kill”.
Cc1ccc(C(C)C)c(O)c1 [Thymol] gave an MFC (Candida albicans; read-out: MFC) of 2500 µg/mL, an MIC (Candida albicans; read-out: MIC) of 125 µg/mL and an MBC (Gardnerella vaginalis; read-out: MBC) of 250 µg/mL. The MIC (Gardnerella vaginalis; read-out: MIC) was 175 µg/mL, the “Inhibition of Lactobacillus acidophilus” value [2] was < 10% and the Mature biofilm inhibition ([3]; 1/4 MIC) was 13.20%. For the same molecule, the Mature biofilm inhibition ([3]; 1 MIC) was 26.18%, the Native biofilm inhibition ([3]; 1/8 MIC) was 11.39% and the Native biofilm inhibition ([3]; 1 MIC) was 32.77%. The “Adhesion of G. vaginalis to human vaginal cells” value (G. vaginalis) was “interfere with the adhesion”, the “Destruction of mature biofilms” value (C. albicans biofilms; C. albicans mature biofilms) was “considerable effect” and the “Reduction in biofilms formed” value (C. albicans biofilms; C. albicans, 0.5xMIC, P<0.05) was “significant reduction”.
